Data on 31 compounds can be found in US20250353853A1, “FLAVIVIRUS INHIBITORS” (IRBM S.P.A., priority 2022, published 2025).

Structures can show the parent of a compound that is named as a salt. Bounds are passed on as bounds.

This test deals with ZIKV replicon in Vero cells. Kind of test: ZIKV Replication Inhibition Assay (replicon, NanoLuc). The note with it: Zika virus, Vero, 72 h, read-out: Zika Replicon EC50.
Broadly, the EC50 is the concentration that produces a half-maximal response. `O=C([N-]c1c[n+](Cc2ccc(-c3cncnc3C3CC3)cc2)no1)Nc1cccc(C(F)(F)F)c1` [Example 91, (3-(4-(4-cyclopropylpyrimidin-5-yl)benzyl)-1,2,3-oxadiazol-3-ium-5-yl)((3-(trifluoromethyl)phenyl)carbamoyl)amide]: the EC50 fell in the range of 100 to 1000 nM.

In the case of `Cc1ncccc1-c1ccc(C[n+]2cc([N-]C(=O)Nc3cccc(C(F)(F)F)c3)on2)cc1` [Example 92, (3-(4-(2-methylpyridin-3-yl)benzyl)-1,2,3-oxadiazol-3-ium-5-yl)((3-(trifluoromethyl)phenyl)carbamoyl)amide], the EC50 is < 100 nM.

Regarding `Cc1cnncc1-c1ccc(C[n+]2cc([N-]C(=O)Nc3cccc(C(F)(F)F)c3)on2)cc1` [Example 93, (3-(4-(5-methylpyridazin-4-yl)benzyl)-1,2,3-oxadiazol-3-ium-5-yl)((3-(trifluoromethyl)phenyl)carbamoyl)amide], the EC50 is < 100 nM.

`Cc1noc(C)c1-c1cccc(C[n+]2cc([N-]C(=O)Nc3cccc(C(F)(F)F)c3)on2)c1` [Example 94, (3-(3-(3,5-dimethylisoxazol-4-yl)benzyl)-1,2,3-oxadiazol-3-ium-5-yl)((3-(trifluoromethyl)phenyl)carbamoyl)amide]: the half-maximal effective concentration (EC50) fell in the range of 100 to 1000 nM.

Regarding `Cc1c(-c2ccc(C[n+]3cc([N-]C(=O)Nc4cccc(C(F)(F)F)c4)on3)cc2)cnn1C` [Example 95, (3-(4-(1,5-dimethyl-1H-pyrazol-4-yl)benzyl)-1,2,3-oxadiazol-3-ium-5-yl)((3-(trifluoromethyl)phenyl)carbamoyl)amide], the concentration giving a half-maximal response (EC50) was in the range of 100 to 1000 nM.

With `Cc1nn(C)cc1-c1ccc(C[n+]2cc([N-]C(=O)Nc3cccc(C(F)(F)F)c3)on2)cc1` [Example 96, (3-(4-(1,3-dimethyl-1H-pyrazol-4-yl)benzyl)-1,2,3-oxadiazol-3-ium-5-yl)((3-(trifluoromethyl)phenyl)carbamoyl)amide], the 50% effective concentration (EC50) was in the range of 100 to 1000 nM.

Turning to `Cc1nn(C)c(C)c1-c1ccc(C[n+]2cc([N-]C(=O)Nc3cccc(C(F)(F)F)c3)on2)cc1` [Example 97], the concentration giving a half-maximal response (EC50) is < 100 nM.

Turning to `Cc1ncn(C)c1-c1ccc(C[n+]2cc([N-]C(=O)Nc3cccc(C(F)(F)F)c3)on2)cc1` [Example 98, (3-(4-(1,4-dimethyl-1H-imidazol-5-yl)benzyl)-1,2,3-oxadiazol-3-ium-5-yl)((3-(trifluoromethyl)phenyl)carbamoyl)amide], the EC50 was in the range of 100 to 1000 nM.

Regarding `Cc1noc(C)c1-c1ccc([C@H](CN)[n+]2cc([N-]C(=O)Nc3cccc(C(F)(F)F)c3)on2)cc1` [Example 99, (R)-(3-(2-amino-1-(4-(3,5-dimethylisoxazol-4-yl)phenyl)ethyl)-1,2,3-oxadiazol-3-ium-5-yl)((3-(trifluoromethyl)phenyl)carbamoyl)amide formate], the EC50 is < 100 nM.

With `O=C([N-]c1c[n+](Cc2csc(-c3cncnc3)c2)no1)Nc1cccc(C(F)(F)F)c1` [Example 100, (3-((5-(pyrimidin-5-yl)thiophen-3-yl)methyl)-1,2,3-oxadiazol-3-ium-5-yl)((3-(trifluoromethyl)phenyl)carbamoyl)amide], the EC50 was in the range of 100 to 1000 nM.

With `Cc1cc(C[n+]2cc([N-]C(=O)Nc3cccc(C(F)(F)F)c3)on2)ccc1-c1cncnc1C` [Example 101, (3-(3-methyl-4-(4-methylpyrimidin-5-yl)benzyl)-1,2,3-oxadiazol-3-ium-5-yl)((3-(trifluoromethyl)phenyl)carbamoyl)amide], the EC50 is < 100 nM.

Regarding `NC[C@@H](c1ccc(-c2cncnc2)cc1)[n+]1cc([N-]C(=O)Nc2cccc(C(F)(F)F)c2)on1` [Example 102, (R)-(3-(2-amino-1-(4-(pyrimidin-5-yl)phenyl)ethyl)-1,2,3-oxadiazol-3-ium-5-yl)((3-(trifluoromethyl)phenyl)carbamoyl)amide formate], the EC50 was 100 to 1000 nM.

With `O=C([N-]c1c[n+](Cc2ccc(-c3cncnc3)nc2)no1)Nc1cccc(C(F)(F)F)c1` [Example 103, (3-((6-(pyrimidin-5-yl)pyridin-3-yl)methyl)-1,2,3-oxadiazol-3-ium-5-yl)((3-(trifluoromethyl)phenyl)carbamoyl)amide], the EC50 is 100 to 1000 nM.

With `Cc1noc(C)c1-c1ccc(C[n+]2cc([N-]C(=O)Nc3cccc(C(F)(F)F)c3)on2)cn1` [Example 104, (3-((6-(3,5-dimethylisoxazol-4-yl)pyridin-3-yl)methyl)-1,2,3-oxadiazol-3-ium-5-yl)((3-(trifluoromethyl)phenyl)carbamoyl)amide], the EC50 is < 100 nM.

For `Cc1ncc(-c2ccc(C[n+]3cc([N-]C(=O)Nc4cccc(C(F)(F)F)c4)on3)cc2)n1C` [Example 105, (3-(4-(1,2-dimethyl-1H-imidazol-5-yl)benzyl)-1,2,3-oxadiazol-3-ium-5-yl)((3-(trifluoromethyl)phenyl)carbamoyl)amide], the EC50 lay within 100 to 1000 nM.

Consider `N#Cc1ncncc1-c1ccc(C[n+]2cc([N-]C(=O)Nc3cccc(C(F)(F)F)c3)on2)cc1` [Example 106, (3-(4-(4-cyanopyrimidin-5-yl)benzyl)-1,2,3-oxadiazol-3-ium-5-yl)((3-(trifluoromethyl)phenyl)carbamoyl)amide], for which the EC50 lay within 100 to 1000 nM.

Regarding `O=C([N-]c1c[n+](Cc2ccc(-c3c(F)nc[nH]c3=O)cc2)no1)Nc1cccc(C(F)(F)F)c1` [Example 107, (3-(4-(4-fluoro-6-oxo-1,6-dihydropyrimidin-5-yl)benzyl)-1,2,3-oxadiazol-3-ium-5-yl)((3-(trifluoromethyl)phenyl)carbamoyl)amide], the EC50 is 1000 to 20000 nM.

`O=C([N-]c1c[n+](Cc2ccc(-c3cncnc3)cn2)no1)Nc1cccc(C(F)(F)F)c1` [Example 108, (3-((5-(pyrimidin-5-yl)pyridin-2-yl)methyl)-1,2,3-oxadiazol-3-ium-5-yl)((3-(trifluoromethyl)phenyl)carbamoyl)amide]: the EC50 was in the range of 100 to 1000 nM.

For `Cc1noc(C)c1-c1ccc(C[n+]2cc([N-]C(=O)Nc3cccc(C(F)(F)F)c3)on2)nc1` [Example 109, (3-((5-(3,5-dimethylisoxazol-4-yl)pyridin-2-yl)methyl)-1,2,3-oxadiazol-3-ium-5-yl)((3-(trifluoromethyl)phenyl)carbamoyl)amide], the EC50 was < 100 nM.

As to `Cc1ncncc1-c1csc(C[n+]2cc([N-]C(=O)Nc3cccc(C(F)(F)F)c3)on2)c1` [Example 110, (3-((4-(4-methylpyrimidin-5-yl)thiophen-2-yl)methyl)-1,2,3-oxadiazol-3-ium-5-yl)((3-(trifluoromethyl)phenyl)carbamoyl)amide], the EC50 was in the range of 100 to 1000 nM.

For the compound `COc1ncnc(C)c1-c1ccc(C[n+]2cc([N-]C(=O)Nc3cccc(C(F)(F)F)c3)on2)cc1` [Example 111, (3-(4-(4-methoxy-6-methylpyrimidin-5-yl)benzyl)-1,2,3-oxadiazol-3-ium-5-yl)((3-(trifluoromethyl)phenyl)carbamoyl)amide], the EC50 is < 100 nM.

Consider `Cc1ncnc(OCCO)c1-c1ccc(C[n+]2cc([N-]C(=O)Nc3cccc(C(F)(F)F)c3)on2)cc1` [Example 112, (3-(4-(4-(2-hydroxyethoxy)-6-methylpyrimidin-5-yl)benzyl)-1,2,3-oxadiazol-3-ium-5-yl)((3-(trifluoromethyl)phenyl)carbamoyl)amide], for which the EC50 was < 100 nM.

Turning to `COc1ncc(-c2ccc(C[n+]3cc([N-]C(=O)Nc4cccc(Cl)c4)on3)cc2)c(C)n1` [Example 113, ((3-chlorophenyl)carbamoyl)(3-(4-(2-methoxy-4-methylpyrimidin-5-yl)benzyl)-1,2,3-oxadiazol-3-ium-5-yl)amide], the EC50 was in the range of 100 to 1000 nM.

Consider `COc1ncc(-c2ccc(C[n+]3cc([N-]C(=O)Nc4cccc(C#N)c4)on3)cc2)c(C)n1` [Example 114, ((3-cyanophenyl)carbamoyl)(3-(4-(2-methoxy-4-methylpyrimidin-5-yl)benzyl)-1,2,3-oxadiazol-3-ium-5-yl)amide], for which the EC50 is 1000 to 20000 nM.

With `COc1ncc(-c2ccc(C[n+]3cc([N-]C(=O)Nc4ccccc4)on3)cc2)c(C)n1` [Example 115, (3-(4-(2-methoxy-4-methylpyrimidin-5-yl)benzyl)-1,2,3-oxadiazol-3-ium-5-yl)(phenylcarbamoyl)amide], the EC50 lay in the range of 1000 to 20000 nM.

In the case of `Cc1noc(C)c1-c1ccc([C@@H](CN)[n+]2cc([N-]C(=O)Nc3cccc(C(F)(F)F)c3)on2)cc1` [Example 116, (S)-(3-(2-amino-1-(4-(3,5-dimethylisoxazol-4-yl)phenyl)ethyl)-1,2,3-oxadiazol-3-ium-5-yl)((3-(trifluoromethyl)phenyl)carbamoyl)amide formate], the EC50 was in the range of 100 to 1000 nM.

In the case of `O=C([N-]c1c[n+](Cc2ccc(-c3cnn(C4CCNCC4)c3)nc2)no1)Nc1cccc(C(F)(F)F)c1` [Example 117, (3-((6-(1-(piperidin-4-yl)-1H-pyrazol-4-yl)pyridin-3-yl)methyl)-1,2,3-oxadiazol-3-ium-5-yl)((3-(trifluoromethyl)phenyl)carbamoyl)amide], the EC50 is 1000 to 20000 nM.

For the compound `Cc1ncn(C)c1-c1ccc(C[n+]2cc([N-]C(=O)Nc3cccc(C(F)(F)F)c3)on2)nc1` [Example 118, (3-((5-(1,4-dimethyl-1H-imidazol-5-yl)pyridin-2-yl)methyl)-1,2,3-oxadiazol-3-ium-5-yl)((3-(trifluoromethyl)phenyl)carbamoyl)amide], the EC50 lay in the range of 100 to 1000 nM.

Take `O=C([N-]c1c[n+](Cc2ccc(-c3cccc4c3CNC4)cn2)no1)Nc1cccc(C(F)(F)F)c1` [Example 119, (3-((5-(isoindolin-4-yl)pyridin-2-yl)methyl)-1,2,3-oxadiazol-3-ium-5-yl)((3-(trifluoromethyl)phenyl)carbamoyl)amide]: the EC50 lay within 100 to 1000 nM.

Take `O=C([N-]c1c[n+](Cc2ccc(-c3cnn(C4CCNCC4)c3)cn2)no1)Nc1cccc(C(F)(F)F)c1` [Example 120, (3-((5-(1-(piperidin-4-yl)-1H-pyrazol-4-yl)pyridin-2-yl)methyl)-1,2,3-oxadiazol-3-ium-5-yl)((3-(trifluoromethyl)phenyl)carbamoyl)amide]: the EC50 is 1000 to 20000 nM.

With `NCc1ccccc1-c1ccc(C[n+]2cc([N-]C(=O)Nc3cccc(C(F)(F)F)c3)on2)nc1` [Example 121, (3-((5-(2-(aminomethyl)phenyl)pyridin-2-yl)methyl)-1,2,3-oxadiazol-3-ium-5-yl)((3-(trifluoromethyl)phenyl)carbamoyl)amide], the EC50 is 100 to 1000 nM.
